From ChEMBL document CHEMBL1287743, “Comparative inhibitory activity of 3'- and 5'-functionalized nucleosides on ribonuclease A” (Bioorg Med Chem, 2010)
Calls of active or inactive are those of the source. The calls are words filed in the database; no cut-off is given here.

What was measured:
[1] = target: T1, Ribonuclease pancreatic (Bos taurus) (UniProt P61823); test: Inhibition of bovine pancreatic RNase A assessed as degradation of tRNA at 1.9 mM after 6 hrs using ethidium bromide staining by agarose gel-based assay
T1 sequence (whole entry): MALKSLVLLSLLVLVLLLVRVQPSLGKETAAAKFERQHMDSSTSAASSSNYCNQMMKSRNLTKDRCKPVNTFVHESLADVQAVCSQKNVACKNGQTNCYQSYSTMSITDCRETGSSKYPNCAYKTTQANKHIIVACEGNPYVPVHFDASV

[2] = target: T1, Ribonuclease pancreatic (Bos taurus); test: Inhibition of bovine pancreatic RNase A ribonucleolytic activity of RNase A at 2.5 mM after 2 hrs by precipitation assay
[3] = target: T2, Ribonuclease pancreatic (Bos taurus, UniProt P61823); test: Competitive inhibition of bovine pancreatic RNase A ribonucleolytic activity of by Dixon plot analysis
T2 sequence (P61823 whole entry): T1 sequence (whole entry)

Row | inhibition [1] | inhibition [2] [%] | Ki [3] [µM] | SMILES
1 | Active | 23.5 | 193 | Cc1cn([C@H]2C[C@H](O)[C@@H](C(=O)O)O2)c(=O)[nH]c1=O [5'-CARBOXY THYMIDINE]
2 | Active | 47.6 | 37 | Cc1cn([C@H]2C[C@H](NC(=O)C(N)CC(=O)O)[C@@H](CO)O2)c(=O)[nH]c1=O (some centres undefined)
3 | Active | 32.2 | 67 | Nc1ncnc2c1ncn2[C@@H]1O[C@H](C(=O)O)[C@@H](O)[C@H]1O [5'-CARBOXY ADENOSINE]
